Activity calls are given as the source filed them.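 How the source made its calls: active means EC50 under 30000 nM from a falling dose curve whose fit quality and slope passed set checks; inactive means the rest.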

Test system in one test: not listed separately
Put plainly: superoxide reduction in chronologically aged yeast, dose response, DHE fluorescence, primary hits (AID 449753). The following applies: S. cerevisiae aged culture, superoxide DHE fluorescence, 7 d; at 30 µM (top of the series).
Consider `CCN(CC)C(=O)CSc1nnc(-c2cccc(OC)c2)o1`, for which the percent response (superoxide), lower = inhibition was 92.6 (inactive). Same read-out and setting: under `O=C(Nc1ccc2nc3ccccc3nc2c1)c1ccccc1` stands 57.7 (inactive); under `C=CCOn1c(=O)c(-c2cccs2)[n+]([O-])c2ccccc21`, 104 (inactive). For the compound `O=c1[nH]c(O)c(C=Nc2ccc(F)c(Cl)c2)c(=O)[nH]1`, the percent response (superoxide), lower = inhibition is 107 (inactive). Turning to `O=C(OCc1c(F)cccc1Cl)c1cnc2ccccc2n1`, the percent response (superoxide), lower = inhibition was 117 (inactive). Regarding `O=C(O)c1cnc2ccccc2n1`, the percent response (superoxide), lower = inhibition was 114 (inactive). For `C#C[C@]1(O)[C@H](O)CC2C3CC[C@H]4C[C@@H](O)CC[C@]4(C)C3CC[C@@]21C` (stereo partly specified), the percent response (superoxide), lower = inhibition is 87.4 (inactive).

For `O=C(Nc1cccc(Cl)c1)Nc1ccc2nccnc2c1`, the percent response (superoxide), lower = inhibition is 87.1 (inactive). On the same count and under the same terms, in the case of `O=C(/C=C/c1cccs1)NC(=S)NNC(=O)Cc1cccs1` it was 121 (inactive); in that of `CN(C)CCNc1ncnc2c1cnn2-c1ccc(Cl)cc1`, 99.2 (inactive). The same measure, in the same setting: in the case of `C[C@]12CCC3C(CC[C@H]4C[C@@H](O)CC[C@]34C)[C@H]1CC[C@H]2O` (stereo partly specified) it was 64.7 (inactive); in that of `O=C(Nc1ccc2nc3ccccc3nc2c1)c1ccc(Br)cc1`, 105 (inactive); in that of `CCc1nc(NC(C)(C)C)c2cnn(-c3ccccc3)c2n1`, 88 (inactive). With `N#CCc1nn(-c2ccccc2)c2ncnc(N)c12`, the percent response (superoxide), lower = inhibition is 96.7 (inactive). Turning to `CC(=O)[C@@]1(O)CCC2C3CC[C@H]4C[C@@H](O)CC[C@]4(C)C3CC[C@@]21C` (stereo partly specified), the percent response (superoxide), lower = inhibition was 129 (inactive). For the compound `O=C(/C=C/c1ccccc1)NC(=S)NNC(=O)Cc1cccs1`, the percent response (superoxide), lower = inhibition is 83 (inactive). For the compound `COc1ccc2nc3ccccc3nc2c1NC(=O)c1ccccc1Cl`, the percent response (superoxide), lower = inhibition is 56.6 (inactive). On the same count and under the same terms, in the case of `N#CC(c1nc2ccccc2nc1N1CCCC1)S(=O)(=O)c1ccccc1` (stereo unspecified) it was 98.7 (inactive); in that of `C[C@]12CCC3C(CC[C@H]4C[C@@H](O)CC[C@]34C)C1CC[C@@H]2OC(=O)[C@H](N)CCCCN` (stereo partly specified), 71.9 (inactive). With `CC(C)OC(=O)CSc1nnc(-c2ccc(Cl)cc2Cl)o1`, the percent response (superoxide), lower = inhibition is 112 (inactive).

Regarding `CC(=O)O[C@H]1CCC2C3CC[C@H]4[C@@H](O)[C@H](O)CC[C@]4(C)C3CC[C@@]21C` (stereo partly specified), the percent response (superoxide), lower = inhibition is 90.2 (inactive).

Another test concerns S. cerevisiae aged culture, superoxide DHE fluorescence, 7 d. The description is as above.
Settings: not given
The term EC50 denotes the concentration needed to bring the measured effect to its halfway point. `COc1ccc2c3c(cccc13)N(C)N=C2C`: the 50% effective concentration (EC50) is 7.91 µM. On to `C[C@]12CCC3C(CC[C@H]4C[C@H](O)CC[C@]34C)C1CCC2=O` (stereo partly specified), for which the EC50 is 0.63 µM. Regarding `OCC[n+]1c2ccccc2nc2ccc(N3CCOCC3)cc21`, the EC50 was 3.81 µM. On to `Cn1c(O)c(C(=Nc2ccc(F)cc2)c2ccccc2Cl)c(=O)n(C)c1=O`, for which the EC50 is 3.14 µM (inactive). Consider `c1ccc2[nH]c3cc4ncnc4cc3nc2c1`, for which the 50% effective concentration (EC50) is 0.04 µM. The same measure, in the same setting: under `C=CCSc1nnc(-c2ccc([N+](=O)[O-])cc2)o1` stands 2.9 µM; under `C[C@]12CCC3C(CC[C@H]4C[C@H](O)CC[C@]34C)C1C[C@@H](CCCCl)[C@@H]2O` (stereo partly specified), 0.5 µM. Consider `COC(=O)c1cccc2nc3c(C(C)O)cccc3nc12` (stereo unspecified), for which the EC50 is 1.29 µM.

`CNC(=O)c1cccc2nc3ccccc3nc12`: the EC50 was 14.5 µM. `COc1ccc2nc3ccccc3nc2c1N`: the EC50 was 0.66 µM.

For `C=C1C(O)[C@@H]2O[C@]3(CC[C@H](/C=C/C(C)[C@@H]4CC(C)=CC5(O[C@H](C[C@@](C)(O)C(=O)O)CCC5O)O4)O3)CC[C@H]2O[C@@H]1C(O)CC(C)[C@H]1OC2(CCCCO2)CCC1C` (stereo partly specified), the EC50 was 0.1 µM.

On to `CCC(=Nc1ccccc1O)C1=C(O)CC(c2ccccc2)CC1=O` (stereo unspecified), for which the EC50 is 1.63 µM. On to `O=C1c2c(O)ccc(O)c2C(=O)c2c(NCCNCCO)ccc(NCCNCCO)c21`, for which the EC50 was 5.25 µM. On to `[O-][n+]1c2ccccc2[n+]([O-])c2cc(O)ccc21`, for which the EC50 was 0.94 µM. On the same count and under the same terms, in the case of `C#CCSc1nnc(-c2ccc([N+](=O)[O-])cc2)o1` it was 4.72 µM.

On to `CC(C)OC(=O)c1ccc2nc3ccccc3nc2c1`, for which the EC50 was 16.7 µM. The same measure, in the same setting: under `Nc1cc2nc3ccccc3nc2cc1N` stands 1.85 µM; under `FC(F)(F)c1nc2cc3nc4ccccc4[nH]c3cc2n1`, 0.21 µM.

For `CC(C)(C)Nc1ncnc2c1cnn2-c1ccccc1`, the EC50 was 0.47 µM. As for `COc1ccc2c(c1)c1nnc(SC)nc1n2C`, the EC50 was 3.23 µM.

Regarding `c1ccc2nc3ccccc3nc2c1`, the EC50 was 0.44 µM. For the compound `CC(C)(C)n1nc(-c2ccc(Cl)cc2)c2c(N)ncnc21`, the EC50 was 4.79 µM. Take `CC(C)(C)n1nc(-c2ccc(F)cc2)c2c(N)ncnc21`: the EC50 is 5.17 µM. With `CNc1ccc2nc3ccccc3[n+](C)c2c1`, the EC50 was 10.1 µM.

Turning to `Cc1ccc(-c2nn(C(C)(C)C)c3ncnc(N)c23)cc1`, the EC50 was 3.03 µM.

For the origin of these results see PubChem BioAssay AID449753 (NMMLSC, 2010).
